This is an account of results in patent US4127720A, “Pyrimido[2,1-a]isoquinoline derivatives having antiallergy activity” (priority 1977, dated 1978).

Read-outs that look alike come from different tables or passages of the source.

Series [1] has as its system reagin-mediated rat Passive Cutaneous Anaphylaxis (PCA). The series is described as follows: Reagin-mediated rat Passive Cutaneous Anaphylaxis (PCA) screening test. It counts as in vivo, Sprague-Dawley rats. Here is the method: The reagin-mediated rat Passive Cutaneous Anaphylaxis (PCA) screening test used to evaluate the present compounds is generally regarded as one of the best animal models for use in predicting the antiallergy activity of test compounds in man. Briefly, the method consists of passive sensitization of skin sites on the test animals with reaginic antibodies followed after 24 hours by administration of the test drug and antigen challenge. The allergic response is measured by use of Evans' blue dye and is evaluated by the spot diameter at the injection side. Details of the test are provided below.
A substituted ovalbumin antigen is used both as immunogen and challenging antigen. The antigen is prepared as follows: 500 mg. ovalbumin (EA) and 500 mg. K2 CO3 are dissolved in 25 ml. distilled H2 O and stirred at room temperature for 5 minutes. Five hundred (500) mg. dinitrobenzene sulfonic acid, Na^+ salt, (previously recrystallized from hot absolute ethanol) is then added slowly with continued stirring. The reaction mixture is then immediately placed in the dark and allowed to proceed for 2 hours with constant stirring. After 2 hours the mixture is placed in suitable dialysis tubing and dialyzed against 5 changes (4 liters each) of distilled H2 O at 5° C. After dialysis the product is lyophilized and stored at room temperature in a brown or amber container. The antigen obtained will appear as a light yellow, amorphous solid which is very soluble in water or saline. It is designated as DNP denatured ovalbumin (DNP-d EA).
Adult, male Sprague-Dawley rats are used as a source or reagin-rich antisera for the PCA model. Immunization is by a combination of DNP-d EA on Al(OH)3 gel and B. pertussis vaccine. Preparation of the DNP-d EA - gel immunogen is as follows: Dissolve the DNP-d EA in TBS so as to give a concentration of 10 mg./ml. Slowly add 1 ml. of this solution to 10 ml. Al(OH)3 gel (10 mg. solids/ml.) with constant stirring at room temperature. Stir the mixture an additional 30 minutes to insure a uniform adsorption of antigen on gel.
The resulting preparation is then used in combination with phase I B. pertussis vaccine to immunize male S/D rats as follows: For each rat administer 0.1 ml. DNP-d EA - gel suspension intramuscularly in each hind leg (200 μg DNP-d EA and 2 mg. gel total dose). Follow these injections by the intraperitoneal administration of 1.0 ml. B. pertussis vaccine (10-20 × 10^9 organisms). The use of light ether anesthesia during this procedure is recommended to insure proper intramuscular and intraperitoneal injections. Nine days following immunization (but no longer than 10) the animals are exsanguinated by cardiac puncture or abdominal aorta cannulation under ether or pentobarbital anesthesia. The collected whole blood is allowed to clot, the serum separated by centrifugation and the individual serum samples stored frozen until assayed for IgE content.
Individual serum samples should be screened for reaginic antibody concentration before being pooled with other sera, as not all rats respond to immunization procedures with reagin production. A 1:50 saline dilution of serum from each immunized rat is used for this purpose. Intradermal injections of 0.05 ml. of the diluted sera are made in the shaven backs of two small female recipient rats, 100-120 gms. Several serum samples can be tested simultaneously in recipient animals. After a 24 to 48 hour latent period antigen challenge is accomplished by intravenous administration to each rat of 1 mg. DNP-d EA in 0.5 ml. 0.5% Evans' blue dye in saline. Sera which show positive PCA reactions at the 1:50 dilution, as measured 20 to 30 minutes post-challenge are pooled, dispensed in small aliquots and stored at -70° C. or lower until used. Negative sera may be discarded.
The IgE titer of the antisera pool should then be determined. […]

For series [2] the following is noted: cited from earlier work.
Series [3] concerns release of mediators, e.g. histamine and SRS-A. To be noted: administered to asthmatic patients prior to inhalation of specific antigens; cited from earlier work.
Where [4] appears, read: iv, 1-5 minutes prior to antigen challenge (DSCG: at the time of antigen challenge), read-out: Rat PCA Test ID50, i.v. (dose of compound that inhibits 50% of the response).
The mark [5] stands for this setting: po, 10 minutes prior to antigen challenge, Table II and its footnote, read-out: Rat PCA Test ID50, p.o. (dose of compound that inhibits 50% of the response).
[6] abbreviates: po, 10 minutes prior to antigen challenge, Table 1, read-out: Rat PCA Test ID50, p.o. (dose of compound that inhibits 50% of the response).

As to `O=C(O)c1cc(=O)c2c(OCC(O)COc3cccc4oc(C(=O)O)cc(=O)c34)cccc2o1` [DSCG, disodium cromoglycate, reference compound], the ED50 in series [1] (setting [4]) is 0.6 mg/kg; in series [1] (setting [5]), above 30 mg/kg; in series [1] (po, DSCG dosed 30 minutes prior to challenge, Table 1, read-out: Rat PCA Test ID50, p.o. (DSCG)) it was above 30 mg/kg. In addition, in series [2], the oral absorption entry is listed as “not orally absorbed”. Also, in series [3], the “inhibition of release of mediators, e.g. histamine and SRS-A” value is “inhibits the release of mediators”.

Regarding `O=C(O)c1cnc2n(c1=O)CCc1cc(O)c(O)cc1-2` [Example 20, 6,7-Dihydro-9,10-dihydroxy-4-oxo-4H-pyrimido[2,1-a]isoquinoline-3-carboxylic Acid], the ED50 in series [1] (setting [6]) is around 0.077 mg/kg.

As for `CC(C)C(=O)Oc1ccc2c(c1)-c1ncc(C(=O)O)c(=O)n1CC2` [Example 21, 10-Isobutyryloxy-6,7-dihydro-4-oxo-4H-pyrimido[2,1-a]isoquinoline-3-carboxylic Acid], in series [1] (setting [6]), the ED50 was around 0.5 mg/kg.

Take `COc1cc2c(cc1OC)-c1ncc(-c3nnn[nH]3)c(=O)n1CC2` [Example 24, 6,7-Dihydro-9,10-dimethoxy-3-(1H-tetrazol-5-yl)-4H-pyrimido[2,1-a]isoquinol-4-one]: the ED50 in series [1] (setting [6]) was around 0.03 mg/kg.

In the case of `CCc1cn2c(=O)c(-c3nnn[nH]3)cnc2c2ccccc12` [Example 25, 7-Ethyl-3-(1H-tetrazol-5-yl)-4H-pyrimido[2,1-a]isoquinol-4-one], the ED50 in series [1] (setting [4]) is 0.009 mg/kg; in series [1] (setting [5]), 0.04 mg/kg.
